Legend:
GoSLDH [1] = biological target: T1, GoSLDH (Gluconobacter oxydans, UniProt Q9KWR5); assay: isothermal titration calorimetry; type: binding
T1 construct: codon-optimised synthetic gene in pET28a, expressed in E. coli BL21-CodonPlus(DE3)-RIL, purified (His-tag vector)
T1 sequence (Q9KWR5 1-485): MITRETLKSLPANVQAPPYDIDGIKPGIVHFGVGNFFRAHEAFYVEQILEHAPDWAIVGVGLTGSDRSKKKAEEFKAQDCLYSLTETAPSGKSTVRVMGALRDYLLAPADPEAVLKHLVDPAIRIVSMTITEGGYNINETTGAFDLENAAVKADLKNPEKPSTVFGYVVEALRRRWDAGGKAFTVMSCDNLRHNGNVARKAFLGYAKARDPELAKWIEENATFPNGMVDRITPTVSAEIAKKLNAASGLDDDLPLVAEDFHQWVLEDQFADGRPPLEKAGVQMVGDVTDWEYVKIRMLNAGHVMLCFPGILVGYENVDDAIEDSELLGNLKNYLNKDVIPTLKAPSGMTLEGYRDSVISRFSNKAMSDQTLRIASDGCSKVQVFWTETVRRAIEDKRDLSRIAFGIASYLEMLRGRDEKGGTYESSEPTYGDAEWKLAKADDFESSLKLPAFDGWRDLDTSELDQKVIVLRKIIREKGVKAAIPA

GoSLDH [2] = biological target: T1, GoSLDH; assay: steady-state inhibition kinetics, double-reciprocal plots; type: biochemical

Structure (SMILES)	Kd (GoSLDH [1])	Ki (GoSLDH [2])
NC(=O)C1=CN([C@@H]2O[C@H](COP(=O)(O)OP(=O)(O)OC[C@H]3O[C@@H](n4cnc5c(N)ncnc54)[C@H](OP(=O)(O)O)[C@@H]3O)[C@@H](O)[C@H]2O)C=CC1 [NADPH]	67.1 µM	100 µM
NC(=O)c1ccc[n+]([C@@H]2O[C@H](COP(=O)(O)OP(=O)(O)OC[C@H]3O[C@@H](n4cnc5c(N)ncnc54)[C@H](OP(=O)(O)O)[C@@H]3O)[C@@H](O)[C@H]2O)c1 [NADP^+]	89.3 µM	
